Target: T1, DGAT1 (Homo sapiens, UniProt O75907)
T1 construct: host or cells: HepG2 cell homogenate (supernatant after sonication and 2000×g centrifugation)
T1 sequence (O75907 1-488): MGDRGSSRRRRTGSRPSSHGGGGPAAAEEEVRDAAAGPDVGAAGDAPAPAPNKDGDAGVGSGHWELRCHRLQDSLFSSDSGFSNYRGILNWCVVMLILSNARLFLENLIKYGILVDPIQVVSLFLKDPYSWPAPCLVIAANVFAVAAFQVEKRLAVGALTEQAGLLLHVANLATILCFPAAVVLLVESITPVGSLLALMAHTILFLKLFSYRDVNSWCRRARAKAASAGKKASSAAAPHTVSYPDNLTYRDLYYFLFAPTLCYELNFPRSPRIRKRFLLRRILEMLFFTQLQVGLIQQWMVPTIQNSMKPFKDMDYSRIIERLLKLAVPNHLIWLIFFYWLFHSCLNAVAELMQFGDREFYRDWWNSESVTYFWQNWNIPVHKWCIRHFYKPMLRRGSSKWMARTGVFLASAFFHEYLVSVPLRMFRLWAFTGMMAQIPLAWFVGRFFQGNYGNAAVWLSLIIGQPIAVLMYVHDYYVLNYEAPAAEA
Assay: Assay for inhibition of DGAT1 activity (IC50), in vitro enzymatic assay using homogenates of HepG2 cell line
Type: biochemical
Conditions: inhibitory activity against DGAT1; HepG2 protein (25 μg), 1,2-dioleoyl-sn-glycerol (30 μM), 14C oleoyl coenzyme A (10 μM), room temperature, 60 mins
Protocol: In order to identify DGAT1 inhibitors, in vitro enzymatic assays were performed by using homogenates of HepG2 cell line (ATCC, USA, HB-8065). Briefly stated, HepG2 cells were inoculated in 10% FBS-supplemented medium at 1.0×10^7 cells/well, cultured at 37° C., and harvested 72 hrs later. The harvested cells were lysed by ultrasonic treatment, and centrifuged for at 4° C. (2000×g, 10 mins) to remove any uncracked cells and impurities. The supernatant thus formed was obtained, and stored at −70° C. after its protein contents were quantitatively analyzed.
DGAT1 activation was assayed by a modification of the method described by Coleman (Methods in Enzymology, 1992, 209, 98-102). The compound of the present invention ([…]) was incubated with HepG2 protein (25 μg), MgCl2 (150 mM) and 1,2-dioleoyl-sn-glycerol (30 μM) in a total assay volume of 200 μL in plastic tubes.
The reaction was started by adding ^14C oleoyl coenzyme A (10 μM final concentration) and incubated at room temperature for 60 mins. The reaction was ended when a mixed solution (300 μL) of 2-propanol and heptane (7:1) was added thereto. Radioactive triolein product was separated into the organic phase by adding heptane (200 μL) and 1.0 M carbonate buffer (200 μL, pH 9.5). DGAT1 activity was quantified by counting aliquots of the upper heptane layer by liquid […].

SMILES	IC50
Cn1cc(-c2ccc(CCC(=O)O)cc2)c2ncnc(-c3ccc(NC(=O)Nc4ccccc4Cl)cc3)c21 [Example 57]	< 50 nM
O=C(O)CCc1ccc(-c2csc3c(-c4ccc(NC(=O)Nc5ccc(N6CCOCC6)cc5)cc4)ncnc23)cc1 [Example 44, 3-(4-(4-(4-(3-(4-morpholinophenyl)ureido)phenyl)thieno[3,2-d]pyrimidin-7-yl)phenyl)propanoic acid]	< 10 nM
CN(C)c1ccc(NC(=O)Nc2ccc(-c3ncnc4c(-c5ccc(CC(=O)O)cc5)csc34)cc2)cc1 [Example 35, 2-(4-(4-(4-(3-(4-(dimethylamino)phenyl)ureido)phenyl)thieno[3,2-d]pyrimidin-7-yl)phenyl)acetic acid]	< 10 nM
O=C(O)Cc1ccc(-c2csc3c(-c4ccc(NC(=O)Nc5ccnc(Cl)c5)cc4)ncnc23)cc1 [Example 34, 2-(4-(4-(4-(3-(2-chloropyridin-4-yl)ureido)phenyl)thieno[3,2-d]pyrimidin-7-yl)phenyl)acetic acid]	< 10 nM
O=C(O)Cc1ccc(-c2csc3c(-c4ccc(Nc5nc6ccccc6s5)cc4)ncnc23)cc1 [Example 61, 2-(4-(4-(4-(benzo[d]thiazol-2-ylamino)phenyl)thieno[3,2-d]pyrimidin-7-yl)phenyl)acetic acid]	< 5 nM
COc1ccc(Cl)c(NC(=O)Nc2ccc(-c3ncnc4c(-c5ccc(CCC(=O)O)cc5)csc34)cc2)c1 [Example 46, 3-(4-(4-(4-(3-(2-chloro-5-methoxyphenyl)ureido)phenyl)thieno[3,2-d]pyrimidin-7-yl)phenyl)propanoic acid]	< 5 nM
O=C(O)CCc1ccc(-c2csc3c(-c4ccc(NC(=O)Nc5cc(Cl)ccn5)cc4)ncnc23)cc1 [Example 42, 3-(4-(4-(4-(3-(4-chloropyridin-2-yl)ureido)phenyl)thieno[3,2-d]pyrimidin-7-yl)phenyl)propanoic acid]	< 5 nM
COc1cc(NC(=O)Nc2ccc(-c3ncnc4c(-c5ccc(CCC(=O)O)cc5)csc34)cc2)cc(OC)c1OC [Example 24, 3-(4-(4-(4-(3-(3,4,5-trimethoxyphenyl)ureido)phenyl)thieno[3,2-d]pyrimidin-7-yl)phenyl)propanoic acid]	< 5 nM
CN1CCN(c2ccc(NC(=O)Nc3ccc(-c4ncnc5c(-c6ccc(CCC(=O)O)cc6)csc45)cc3)cc2)CC1 [Example 50, 3-(4-(4-(4-(3-(4-(4-methylpiperazin-1-yl)phenyl)ureido)phenyl)thieno[3,2-d]pyrimidin-7-yl)phenyl)propanoic acid]	< 20 nM
O=C(O)CCc1ccc(-c2csc3c(-c4ccc(NC(=O)Nc5ccc(F)c(F)c5)cc4)ncnc23)cc1 [Example 14, 3-(4-(4-(4-(3-(3,4-difluorophenyl)ureido)phenyl)thieno[3,2-d]pyrimidin-7-yl)phenyl)propanoic acid]	< 5 nM
NC(=O)CCc1ccc(-c2csc3c(-c4ccc(NC(=O)Nc5cccc(Cl)c5)cc4)ncnc23)cc1 [Example 28, 3-(4-(4-(4-(3-(3-chlorophenyl)ureido)phenyl)thieno[3,2-d]pyrimidin-7-yl)phenyl)propanamide]	< 5 nM
O=C(O)CCc1ccc(-c2csc3c(-c4ccc(NC(=O)Nc5ccc(-n6cnnc6)cc5)cc4)ncnc23)cc1 [Example 53, 3-(4-(4-(4-(3-(4-(4H-1,2,4-triazol-4-yl)phenyl)ureido)phenyl)thieno[3,2-d]pyrimidin-7-yl)phenyl)propanoic acid]	< 50 nM
CS(=O)(=O)c1ccc(-c2csc3c(-c4ccc(NC(=O)Nc5cccc(Cl)c5)cc4)ncnc23)cc1 [Example 31, 1-(3-chlorophenyl)-3-(4-(7-(4-(methylsulfon)phenyl)thieno[3,2-d]pyrimidin-4-yl)phenyl)urea]	< 10 nM

Continued, values first:

IC50	SMILES
< 5 nM	O=C(O)Cc1ccc(-c2csc3c(-c4ccc(NC(=O)Nc5ccccc5)cc4)ncnc23)cc1 [Example 1, 2-(4-(4-(4-(3-phenylureido)phenyl)thieno[3,2-d]pyrimidin-7-yl)phenyl)acetic acid]
< 1 nM	O=C(O)Cc1ccc(-c2csc3c(-c4ccc(NC(=O)NC5CCCCC5)cc4)ncnc23)cc1 [Example 16, 2-(4-(4-(4-(3-cyclohexylureido)phenyl)thieno[3,2-d]pyrimidin-7-yl)phenyl)acetic acid]
< 1 nM	CN(C)c1ccc(NC(=O)Nc2ccc(-c3ncnc4c(-c5ccc(CCC(=O)O)cc5)csc34)cc2)cc1 [Example 40, 3-(4-(4-(4-(3-(4-(dimethylamino)phenyl)ureido)phenyl)thieno[3,2-d]pyrimidin-7-yl)phenyl)propanoic acid]
< 1 nM	O=C(O)CCc1ccc(-c2csc3c(-c4ccc(NC(=O)Nc5ccc(-c6nn[nH]n6)cc5)cc4)ncnc23)cc1 [Example 49, 3-(4-(4-(4-(3-(4-(2H-tetrazol-5-yl)phenyl)ureido)phenyl)thieno[3,2-d]pyrimidin-7-yl)phenyl)propanoic acid]
< 1 nM	O=C(O)Cc1ccc(-c2csc3c(-c4ccc(NC(=O)Nc5cccc(Cl)c5)cc4)ncnc23)cc1 [Example 2, 2-(4-(4-(4-(3-(3-chlorophenyl)ureido)phenyl)thieno[3,2-d]pyrimidin-7-yl)phenyl)acetic acid]
< 5 nM	COc1ccccc1NC(=O)Nc1ccc(-c2ncnc3c(-c4ccc(CCC(=O)O)cc4)csc23)cc1 [Example 20, 3-(4-(4-(4-(3-(2-methoxyphenyl)ureido)phenyl)thieno[3,2-d]pyrimidin-7-yl)phenyl)propanoic acid]
< 1 nM	Cc1ccc(NC(=O)Nc2ccc(-c3ncnc4c(-c5ccc(CCC(=O)O)cc5)csc34)cc2)cc1 [Example 21, 3-(4-(4-(4-(3-p-tolylureido)phenyl)thieno[3,2-d]pyrimidin-7-yl)phenyl)propanoic acid]
< 5 nM	COc1ccc(NC(=O)Nc2ccc(-c3ncnc4c(-c5ccc(CCC(=O)O)cc5)csc34)cc2)cc1 [Example 15, 3-(4-(4-(4-(3-(4-methoxyphenyl)ureido)phenyl)thieno[3,2-d]pyrimidin-7-yl)phenyl)propanoic acid]
< 5 nM	O=C(O)CCc1ccc(-c2csc3c(-c4ccc(NC(=O)Nc5cccc(C(F)(F)F)c5F)cc4)ncnc23)cc1 [Example 55, 3-(4-(4-(4-(3-(2-fluoro-3-(trifluoromethyl)phenyl)ureido)phenyl)thieno[3,2-d]pyrimidin-7-yl)phenyl)propanoic acid]
< 1 nM	O=C(O)CCc1ccc(-c2csc3c(-c4ccc(NC(=O)Nc5cccc(F)c5)cc4)ncnc23)cc1 [Example 39, 3-(4-(4-(4-(3-(3-fluorophenyl)ureido)phenyl)thieno[3,2-d]pyrimidin-7-yl)phenyl)propanoic acid]
< 1 nM	O=C(O)CCc1ccc(-c2csc3c(-c4ccc(NC(=O)Nc5cccc(Cl)c5)cc4)ncnc23)cc1F [Example 30, 3-(4-(4-(4-(3-(3-chlorophenyl)ureido)phenyl)thieno[3,2-d]pyrimidin-7-yl)-2-fluorophenyl)propanoic acid]
< 1 nM	O=C(O)CCc1ccc(-c2csc3c(-c4ccc(NC(=O)Nc5ccc(N6CCCC6)cc5)cc4)ncnc23)cc1 [Example 52, 3-(4-(4-(4-(3-(4-(pyrrolidin-1-yl)phenyl)ureido)phenyl)thieno[3,2-d]pyrimidin-7-yl)phenyl)propanoic acid]
< 1 nM	O=C(O)Cc1ccc(-c2csc3c(-c4ccc(NC(=O)Nc5ccc(F)c(F)c5)cc4)ncnc23)cc1 [Example 4, 2-(4-(4-(4-(3-(3,4-difluorophenyl)ureido)phenyl)thieno[3,2-d]pyrimidin-7-yl)phenyl)acetic acid]
< 1 nM	CC(C)(C(=O)O)c1ccc(-c2csc3c(-c4ccc(NC(=O)Nc5cccc(Cl)c5)cc4)ncnc23)cc1 [Example 59, 2-(4-(4-(4-(3-(3-chlorophenyl)ureido)phenyl)thieno[3,2-d]pyrimidin-7-yl)phenyl)-2-methylpropanoic acid]
< 1 nM	CN1CCC(NC(=O)Nc2ccc(-c3ncnc4c(-c5ccc(CCC(=O)O)cc5)csc34)cc2)CC1 [Example 51, 3-(4-(4-(4-(3-(1-methylpiperidin-4-yl)ureido)phenyl)thieno[3,2-d]pyrimidin-7-yl)phenyl)propanoic acid]
< 1 nM	O=C(O)CCc1ccc(-c2csc3c(-c4ccc(NC(=O)Nc5cccc(Cl)c5)cc4)ncnc23)cc1 [Example 7, 3-(4-(4-(4-(3-(3-chlorophenyl)ureido)phenyl)thieno[3,2-d]pyrimidin-7-yl)phenyl)propanoic acid]
